# Measured values reported in patent US4753953A, “Pyridonecarboxylic acid derivatives and antibacterial pharmaceutical compositions thereof” (priority 1985, dated 1988).
# Read-outs that look alike come from different tables or passages of the source.
# Legend:
# [1] = test system: Propionibacterium acens 11828; test: MIC, in vitro antibacterial activity (standard strains); format: cell-based; conditions: Propionibacterium, 11828; 10^6 cells/ml; Gram +; read-out: MIC
# [2] = test system: Staphylococcus aureus 209 P; test: as above; format: cell-based; conditions: Staphylococcus aureus, 209P; 10^6 cells/ml; Gram +; read-out: MIC
# [3] = test system: Serratia marcescens IID 618; test: as above; format: cell-based; conditions: Serratia marcescens, IID618; 10^6 cells/ml; Gram -; read-out: MIC
# [4] = test system: E. limosum KYA 8486; test: as above; format: cell-based; conditions: Eubacterium limosum, KYA8486; 10^6 cells/ml; Gram +; read-out: MIC
# [5] = test system: Enterobacter cloacae IID 977; test: as above; format: cell-based; conditions: Enterobacter cloacae, IID977; 10^6 cells/ml; Gram -; read-out: MIC
# [6] = test system: Peptococcus magnus KY 017; test: as above; format: cell-based; conditions: Finegoldia magna, KY017; 10^6 cells/ml; Gram +; read-out: MIC
# [7] = test system: C. perfringens KYA 13123; test: microbe, parasite or virus in culture; format: cell-based; conditions: Clostridium perfringens, KYA13123
# [8] = test system: Eubacterium lentum GAI 5242; test: MIC, in vitro antibacterial activity (standard strains); format: cell-based; conditions: Eggerthella lenta, GAI5242; 10^6 cells/ml; Gram +; read-out: MIC
# [9] = test system: B. fragilis 0558; test: as above; format: cell-based, Bacteroides fragilis; conditions: Bacteroides fragilis, 0558; 10^6 cells/ml; Gram -; read-out: MIC
# [10] = test system: Yersinia enterocolitica IID 981; test: as above; format: cell-based; conditions: Yersinia enterocolitica, IID981
# [11] = test system: Acinetobacter anitratus IID 876; test: as above; format: cell-based; conditions: Acinetobacter calcoaceticus, IID876; 10^6 cells/ml; Gram -; read-out: MIC
# [12] = test system: P. cepacia GIFU 518; test: as above; format: cell-based; conditions: Burkholderia cepacia, GIFU518
# [13] = test system: F. necrophorum S-45; test: as above; format: cell-based; conditions: Fusobacterium necrophorum, S45; 10^6 cells/ml; Gram -; read-out: MIC
# [14] = test system: P. aeruginosa IFO 12689; test: as above; format: cell-based, Pseudomonas aeruginosa; conditions: Pseudomonas aeruginosa, IFO12689; 10^6 cells/ml; Gram -; read-out: MIC
# [15] = test system: Alcaligenes faecalis 0114002; test: as above; format: cell-based; conditions: Alcaligenes faecalis, 0114002; 10^6 cells/ml; Gram -; read-out: MIC
# [16] = test system: E. coli ML 4707; test: as above; format: cell-based, Escherichia coli; conditions: Escherichia coli, ML4707, 10^6 cells/ml; Gram -; Table 1; read-out: MIC
# [17] = test system: Shigella sonnei IID 969; test: as above; format: cell-based; conditions: Shigella sonnei, IID969; 10^6 cells/ml; Gram -; read-out: MIC
# Protocol: Minimal inhibitory concentrations (MICs) were determined in accordance with the method recommended by Japan Society of Chemotherapy.
# [18] = 10^6 cells/ml, Gram -, read-out: MIC
Compound,MIC [1],MIC [2],MIC [3],MIC [4],MIC [5],MIC [6],MIC [7],MIC [8],MIC [9],"MIC [10, 18]",MIC [11],"MIC [12, 18]",MIC [13],MIC [14],MIC [15],MIC [16],MIC [17],MIC [12],MIC [10]
"CNCC1CN(c2c(F)cc3c(=O)c(C(=O)O)cn(C4CC4)c3c2Cl)CC1C (centres unmarked) [Example 12, 8-Chloro-1-cyclopropyl-6-fluoro-1,4-dihydro-7-(3-methylaminomethyl-4-methyl-1-pyrrolidinyl)-4-oxo-3-quinolinecarboxylic acid]",0.78 µg/mL,0.05 µg/mL,0.2 µg/mL,0.39 µg/mL,0.2 µg/mL,0.05 µg/mL,0.1 µg/mL,0.2 µg/mL,0.1 µg/mL,0.1 µg/mL,0.2 µg/mL,0.78 µg/mL,0.2 µg/mL,1.56 µg/mL,0.39 µg/mL,0.025 µg/mL,0.025 µg/mL,,
"C[C@H]1CN(c2c(F)cc3c(=O)c(C(=O)O)cn4c3c2OC[C@@H]4C)C[C@H]1N.Cl (mixture of isomers) [Example 31, (3S)-10-(cis-3-Amino-4-methyl-1-pyrrolidinyl)-9-fluoro-2,3-dihydro-3-methyl-7-oxo-7H-pyrido[1,2,3-de][1,4]benzoxazine-6-carboxylic acid hydrochloride]",6.25 µg/mL,0.2 µg/mL,0.1 µg/mL,3.13 µg/mL,0.1 µg/mL,0.2 µg/mL,0.2 µg/mL,0.39 µg/mL,0.78 µg/mL,0.1 µg/mL,1.56 µg/mL,1.56 µg/mL,0.39 µg/mL,0.78 µg/mL,0.39 µg/mL,0.025 µg/mL,0.05 µg/mL,,
"C[C@H]1CN(c2c(F)cc3c(=O)c(C(=O)O)cn(CCF)c3c2F)C[C@H]1N (relative stereo) [Example 25, 7-(cis-b 3-Amino-4-methyl-1-pyrrolidinyl)-6,8-difluoro-1-(2-fluoroethyl)-1,4-dihydro-4-oxo-3-quinolinecarboxylic acid]",25 µg/mL,0.2 µg/mL,0.1 µg/mL,6.25 µg/mL,0.1 µg/mL,1.56 µg/mL,0.78 µg/mL,1.56 µg/mL,3.13 µg/mL,0.1 µg/mL,1.56 µg/mL,,3.13 µg/mL,1.56 µg/mL,0.78 µg/mL,0.05 µg/mL,0.78 µg/mL,1.56 µg/mL,
"C[C@H]1CN(c2cc3c(cc2F)c(=O)c(C(=O)O)cn3C2CC2)C[C@H]1N (relative stereo) [Example 33, 7-(cis-3-Amino-4-methyl-1-pyrrolidinyl)-1-cyclopropyl-6-fluoro-1,4-dihydro-4-oxo-3-quinolinecarboxylic acid]",12.5 µg/mL,0.05 µg/mL,0.05 µg/mL,0.2 µg/mL,0.05 µg/mL,0.39 µg/mL,0.78 µg/mL,0.78 µg/mL,1.56 µg/mL,0.05 µg/mL,0.1 µg/mL,,1.56 µg/mL,0.39 µg/mL,0.2 µg/mL,0.05 µg/mL,0.05 µg/mL,,
"C[C@H]1CN(c2c(F)cc3c(=O)c(C(=O)O)cn(C4CC4)c3c2F)C[C@H]1N.Cl (relative stereo) [Example 20, 7-(cis-3-Amino-4-methyl-1-pyrrolidinyl)-1-cyclopropyl-6,8-difluoro-1,4-dihydro-4-oxo-3-quinolinecarboxylic acid hydrochloride]",3.13 µg/mL,0.05 µg/mL,0.05 µg/mL,,0.05 µg/mL,0.2 µg/mL,0.2 µg/mL,0.2 µg/mL,0.39 µg/mL,0.05 µg/mL,0.05 µg/mL,0.39 µg/mL,0.39 µg/mL,0.39 µg/mL,0.39 µg/mL,0.025 µg/mL,0.0125 µg/mL,,
"C[C@H]1CN(c2c(F)cc3c(=O)c(C(=O)O)cn(C4CC4)c3c2Br)C[C@H]1N (relative stereo) [Example 21, 7-(cis-3-Amino-4-methyl-1-pyrrolidinyl)-8-bromo-1-cyclopropyl-6-fluoro-1,4-dihydro-4-oxo-3-quinolinecarboxylic acid]",1.56 µg/mL,0.025 µg/mL,0.025 µg/mL,,0.025 µg/mL,0.05 µg/mL,0.1 µg/mL,0.05 µg/mL,0.05 µg/mL,,0.025 µg/mL,0.39 µg/mL,0.1 µg/mL,0.78 µg/mL,0.2 µg/mL,0.0125 µg/mL,0.0063 µg/mL,,0.025 µg/mL
"C[C@@H]1CN(c2c(F)cc3c(=O)c(C(=O)O)cn(C4CC4)c3c2F)C[C@H]1N (relative stereo) [Example 18, 7-(trans-3-Amino-4-methyl-1-pyrrolidinyl)-1-cyclopropyl-6,8-difluoro-1,4-dihydro-4-oxo-3-quinolinecarboxylic acid]",1.56 µg/mL,0.05 µg/mL,0.05 µg/mL,,0.05 µg/mL,0.05 µg/mL,0.1 µg/mL,0.1 µg/mL,0.2 µg/mL,0.05 µg/mL,0.025 µg/mL,,0.2 µg/mL,0.39 µg/mL,0.1 µg/mL,0.0063 µg/mL,0.0125 µg/mL,0.1 µg/mL,
"C[C@@H]1CN(c2c(F)cc3c(=O)c(C(=O)O)cn(C4CC4)c3c2Br)C[C@H]1N (relative stereo) [Example 32, 7-(trans-3-Amino-4-methyl-1-pyrrolidinyl)-8-bromo-1-cyclopropyl-6-fluoro-1,4-dihydro-4-oxo-3-quinolinecarboxylic acid]",1.56 µg/mL,0.025 µg/mL,0.05 µg/mL,0.1 µg/mL,0.05 µg/mL,0.05 µg/mL,0.2 µg/mL,0.1 µg/mL,0.05 µg/mL,0.025 µg/mL,0.025 µg/mL,,0.1 µg/mL,0.39 µg/mL,0.1 µg/mL,0.0125 µg/mL,0.0063 µg/mL,,
